pIC50: −log10 of the molar value. A value given as a limit tells only on which side of the number the result lay.

What all share (assay type): cell-based
Assay [1] addresses KDR (phospho-KDR, VEGF165-stimulated HUVEC cells) (Homo sapiens (Human), UniProt P35968). Briefly: KDR autophosphorylation ELISA in HUVEC cells (Example G). The following applies: cellular activity; KDR autophosphorylation ELISA in HUVEC cells. An outline of the steps:
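Read-out: phospho-KDR in cell lysates by DuoSet IC ELISA, normalised between VEGF-stimulated DMSO wells (100%) and unstimulated wells (0%). Human endothelial cells were starved overnight in serum-free medium, exposed to compound for 1 h, and then pulsed with 100 ng/mL VEGF165 for 5 min.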
On the technique in general: ELISA stands for enzyme-linked immunosorbent assay.

Assay [2] concerns the target Met (phospho-Met, HGF-stimulated PC-3 prostate cancer cells) (Homo sapiens (Human), UniProt P08581). The experiment in a line: Met autophosphorylation ELISA in PC-3 cells (Example F). The following applies: cellular activity; Met autophosphorylation ELISA in PC-3 cells; read-out: c-Met IC50. The method, boiled down: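 PC-3 cells, serum-starved 3 h, were treated with compounds (8-point dose curve, 0.3% DMSO final) for 1 h, then stimulated with 100 ng/mL recombinant human HGF for 10 min. Lysate phospho-Met (panTyr) was quantified by sandwich ELISA; IC50 from 4-parameter logistic fit.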

For assay [3], the target named is AXL (phospho-AXL, Gas6-stimulated A-172 glioblastoma cells) (Homo sapiens (Human), UniProt P30530). The experiment in a line: AXL autophosphorylation ELISA in A-172 cells (Example E). The following applies: cellular activity; AXL autophosphorylation ELISA in A-172 cells; read-out: Axl IC50. An outline of the steps: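 Phospho-AXL was measured by ELISA in lysates of Gas6-stimulated A-172 cells, starved 24 h in serum-free medium and exposed 1 h to an 8-point compound dilution at 0.3% DMSO.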

Assay [4] has as its target Mer (phospho-Mer, MERTK-transfected 293A cells) (Homo sapiens (Human), UniProt Q12866). Briefly: Mer autophosphorylation ELISA in transient transfected 293A cells (Example H). The following applies: cellular activity; Mer autophosphorylation ELISA in transient transfected 293A cells. The method, boiled down: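 IC50 from 4-parameter logistic fit of phospho-Mer levels, quantified by ELISA against a phospho-Mer standard in lysates of MERTK-transfected 293A cells. Cells exposed 1 h to 8-point serial dilutions, serum-free, 0.3% DMSO; controls: DMSO (100%) and reference inhibitor (0%).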

Chain of Mer (phospho-Mer, MERTK-transfected 293A cells) (Q12866 21-999): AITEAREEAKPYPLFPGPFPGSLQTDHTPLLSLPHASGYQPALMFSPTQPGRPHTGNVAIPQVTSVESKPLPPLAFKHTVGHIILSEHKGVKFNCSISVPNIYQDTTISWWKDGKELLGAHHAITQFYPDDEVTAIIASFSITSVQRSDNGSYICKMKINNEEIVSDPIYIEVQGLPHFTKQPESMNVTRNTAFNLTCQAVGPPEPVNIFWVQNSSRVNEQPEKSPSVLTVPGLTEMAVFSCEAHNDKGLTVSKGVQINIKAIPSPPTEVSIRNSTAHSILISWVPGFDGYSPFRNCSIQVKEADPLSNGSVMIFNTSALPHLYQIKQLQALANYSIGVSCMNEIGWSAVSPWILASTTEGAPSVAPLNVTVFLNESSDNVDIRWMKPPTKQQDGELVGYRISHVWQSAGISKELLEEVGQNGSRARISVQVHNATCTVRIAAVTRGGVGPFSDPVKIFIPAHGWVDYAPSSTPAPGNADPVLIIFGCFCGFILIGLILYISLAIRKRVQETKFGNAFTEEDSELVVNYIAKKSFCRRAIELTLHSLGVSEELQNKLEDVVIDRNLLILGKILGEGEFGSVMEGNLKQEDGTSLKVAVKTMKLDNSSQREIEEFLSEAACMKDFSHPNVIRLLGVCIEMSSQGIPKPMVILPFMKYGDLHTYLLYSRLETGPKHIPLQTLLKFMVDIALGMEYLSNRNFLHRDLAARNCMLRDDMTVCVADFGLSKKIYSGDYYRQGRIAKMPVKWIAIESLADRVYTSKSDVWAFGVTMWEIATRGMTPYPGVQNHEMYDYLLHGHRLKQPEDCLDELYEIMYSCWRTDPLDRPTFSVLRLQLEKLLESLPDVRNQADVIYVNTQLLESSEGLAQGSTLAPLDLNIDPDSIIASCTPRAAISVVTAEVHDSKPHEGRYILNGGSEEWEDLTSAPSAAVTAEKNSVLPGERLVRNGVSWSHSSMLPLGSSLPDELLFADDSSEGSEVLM
Chain of Met (phospho-Met, HGF-stimulated PC-3 prostate cancer cells) (P08581 25-1390): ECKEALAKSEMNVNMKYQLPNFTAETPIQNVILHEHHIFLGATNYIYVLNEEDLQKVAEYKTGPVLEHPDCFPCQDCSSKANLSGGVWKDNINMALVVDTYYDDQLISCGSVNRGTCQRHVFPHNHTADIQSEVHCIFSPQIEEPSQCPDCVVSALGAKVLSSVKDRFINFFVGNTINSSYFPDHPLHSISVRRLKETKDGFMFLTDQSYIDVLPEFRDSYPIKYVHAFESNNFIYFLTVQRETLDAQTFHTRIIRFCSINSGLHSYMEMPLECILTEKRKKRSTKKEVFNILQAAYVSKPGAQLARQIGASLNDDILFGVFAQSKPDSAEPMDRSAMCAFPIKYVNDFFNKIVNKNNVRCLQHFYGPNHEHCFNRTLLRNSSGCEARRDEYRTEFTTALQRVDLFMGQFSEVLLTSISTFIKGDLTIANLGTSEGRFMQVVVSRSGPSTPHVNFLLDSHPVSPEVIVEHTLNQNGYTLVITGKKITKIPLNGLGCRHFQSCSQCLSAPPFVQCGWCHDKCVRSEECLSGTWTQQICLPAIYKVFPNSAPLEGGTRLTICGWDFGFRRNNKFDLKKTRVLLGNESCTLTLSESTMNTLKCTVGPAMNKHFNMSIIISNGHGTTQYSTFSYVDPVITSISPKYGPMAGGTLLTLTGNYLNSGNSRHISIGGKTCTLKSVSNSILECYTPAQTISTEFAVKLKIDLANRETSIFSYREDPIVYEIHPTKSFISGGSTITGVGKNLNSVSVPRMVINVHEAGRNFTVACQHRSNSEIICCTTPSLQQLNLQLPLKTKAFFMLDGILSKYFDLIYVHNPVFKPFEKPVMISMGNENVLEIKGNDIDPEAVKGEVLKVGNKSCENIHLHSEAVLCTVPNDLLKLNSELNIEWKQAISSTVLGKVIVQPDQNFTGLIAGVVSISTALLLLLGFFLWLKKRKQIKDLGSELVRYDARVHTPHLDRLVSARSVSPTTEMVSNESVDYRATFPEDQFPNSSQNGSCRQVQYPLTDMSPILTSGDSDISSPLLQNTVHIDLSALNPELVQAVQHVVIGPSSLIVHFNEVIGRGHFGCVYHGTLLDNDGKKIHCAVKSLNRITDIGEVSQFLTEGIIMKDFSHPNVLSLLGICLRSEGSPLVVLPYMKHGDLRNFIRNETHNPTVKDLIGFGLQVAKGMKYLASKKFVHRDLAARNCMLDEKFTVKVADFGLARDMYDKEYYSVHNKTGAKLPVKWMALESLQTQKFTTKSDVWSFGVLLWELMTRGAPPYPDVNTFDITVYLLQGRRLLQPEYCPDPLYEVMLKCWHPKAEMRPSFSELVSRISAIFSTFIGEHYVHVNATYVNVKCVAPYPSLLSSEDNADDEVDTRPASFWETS
Chain of KDR (phospho-KDR, VEGF165-stimulated HUVEC cells) (P35968 20-1356): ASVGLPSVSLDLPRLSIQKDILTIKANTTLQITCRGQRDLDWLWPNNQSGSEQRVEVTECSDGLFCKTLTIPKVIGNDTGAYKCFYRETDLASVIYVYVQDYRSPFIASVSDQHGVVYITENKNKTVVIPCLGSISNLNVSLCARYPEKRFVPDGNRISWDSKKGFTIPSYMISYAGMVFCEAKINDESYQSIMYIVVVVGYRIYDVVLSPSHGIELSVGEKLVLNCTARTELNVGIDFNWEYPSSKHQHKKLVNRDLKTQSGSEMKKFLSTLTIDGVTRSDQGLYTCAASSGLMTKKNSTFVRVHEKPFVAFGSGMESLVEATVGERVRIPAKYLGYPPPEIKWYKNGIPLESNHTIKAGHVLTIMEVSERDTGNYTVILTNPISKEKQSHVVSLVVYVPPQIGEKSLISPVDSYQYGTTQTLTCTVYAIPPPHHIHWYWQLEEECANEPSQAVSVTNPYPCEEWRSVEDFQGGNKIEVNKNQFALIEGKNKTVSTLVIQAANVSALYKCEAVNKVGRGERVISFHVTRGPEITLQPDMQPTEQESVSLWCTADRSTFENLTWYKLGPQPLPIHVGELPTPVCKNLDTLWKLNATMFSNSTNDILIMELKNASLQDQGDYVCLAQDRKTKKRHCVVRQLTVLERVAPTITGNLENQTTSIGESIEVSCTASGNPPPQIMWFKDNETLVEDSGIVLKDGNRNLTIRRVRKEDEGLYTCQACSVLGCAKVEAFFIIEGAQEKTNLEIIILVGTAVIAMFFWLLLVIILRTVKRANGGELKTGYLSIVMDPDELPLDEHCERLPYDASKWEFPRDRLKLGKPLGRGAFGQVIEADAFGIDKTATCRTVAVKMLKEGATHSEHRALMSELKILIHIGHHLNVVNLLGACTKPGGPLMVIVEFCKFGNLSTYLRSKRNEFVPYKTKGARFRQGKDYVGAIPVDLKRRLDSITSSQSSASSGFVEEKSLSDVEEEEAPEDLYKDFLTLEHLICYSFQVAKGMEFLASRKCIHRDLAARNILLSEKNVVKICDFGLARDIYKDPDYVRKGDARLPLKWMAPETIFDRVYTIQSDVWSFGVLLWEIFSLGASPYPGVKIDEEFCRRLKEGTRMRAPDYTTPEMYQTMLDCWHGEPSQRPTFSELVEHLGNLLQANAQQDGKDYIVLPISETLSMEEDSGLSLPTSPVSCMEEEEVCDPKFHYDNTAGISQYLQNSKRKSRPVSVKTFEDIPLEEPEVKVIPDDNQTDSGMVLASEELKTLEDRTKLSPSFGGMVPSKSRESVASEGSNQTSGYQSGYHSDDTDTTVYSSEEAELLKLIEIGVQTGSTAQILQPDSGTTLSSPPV
Chain of AXL (phospho-AXL, Gas6-stimulated A-172 glioblastoma cells) (P30530 26-894): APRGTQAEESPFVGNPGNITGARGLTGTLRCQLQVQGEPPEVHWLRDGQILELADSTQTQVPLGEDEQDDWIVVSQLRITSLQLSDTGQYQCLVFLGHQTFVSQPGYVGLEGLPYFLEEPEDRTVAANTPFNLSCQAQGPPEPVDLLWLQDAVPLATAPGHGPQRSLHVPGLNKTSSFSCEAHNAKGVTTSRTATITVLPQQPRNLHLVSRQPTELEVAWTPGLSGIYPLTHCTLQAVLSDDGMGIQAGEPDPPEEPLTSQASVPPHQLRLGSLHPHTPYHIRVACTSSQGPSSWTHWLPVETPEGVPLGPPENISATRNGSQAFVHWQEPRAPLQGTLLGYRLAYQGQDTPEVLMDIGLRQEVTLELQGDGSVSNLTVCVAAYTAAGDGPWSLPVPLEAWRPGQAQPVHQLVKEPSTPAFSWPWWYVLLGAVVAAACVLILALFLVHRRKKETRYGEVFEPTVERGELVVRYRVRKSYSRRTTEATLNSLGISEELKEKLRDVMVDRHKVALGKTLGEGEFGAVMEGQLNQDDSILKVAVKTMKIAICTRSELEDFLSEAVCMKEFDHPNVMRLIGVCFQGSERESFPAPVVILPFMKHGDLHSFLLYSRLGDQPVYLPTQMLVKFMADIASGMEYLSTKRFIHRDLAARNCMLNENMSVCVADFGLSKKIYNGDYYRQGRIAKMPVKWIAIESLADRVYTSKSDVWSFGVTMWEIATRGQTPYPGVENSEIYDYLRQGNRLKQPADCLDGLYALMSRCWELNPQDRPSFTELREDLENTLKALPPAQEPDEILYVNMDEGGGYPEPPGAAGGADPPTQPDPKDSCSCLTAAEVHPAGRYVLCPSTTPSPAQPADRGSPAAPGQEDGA

By pIC50 is commonly meant −log10 of the IC50, conventionally taken in molar units. As to `COCCOc1cc2nccc(Oc3ccc(NC(=O)c4c(C)nc(C)c(-c5ccc(F)cc5C)c4O)cc3)c2nc1OC` [Compound 725, 5-(4-fluoro-2-methylphenyl)-4-hydroxy-N-[4-[[6-methoxy-7-(2-methoxyethoxy)-1,5-naphthyridin-4-yl]oxy]phenyl]-2,6-dimethylpyridine-3-carboxamide], the pIC50 in assay [1], in assay [2], in assay [3] and in assay [4] was > 7.00 throughout.
`CNC(=O)c1cc2nccc(Oc3cc(F)c(NC(=O)c4ccc(C)n(-c5ccc(F)cc5)c4=O)cc3F)c2cc1C` [Compound 726, 4-[2,5-difluoro-4-[[1-(4-fluorophenyl)-6-methyl-2-oxopyridine-3-carbonyl]amino]phenoxy]-N,6-dimethylquinoline-7-carboxamide]: the pIC50 in assay [1], in assay [2], in assay [3] and in assay [4] was > 7.00 throughout.
For `COc1cc2nccc(Oc3ccc(NC(=O)c4cn(C)c(C5CC5)c(-c5ccc(F)cc5)c4=O)cc3F)c2nc1OC` [Compound 728, 6-cyclopropyl-N-[4-[(6,7-dimethoxy-1,5-naphthyridin-4-yl)oxy]-3-fluorophenyl]-5-(4-fluorophenyl)-1-methyl-4-oxopyridine-3-carboxamide], the pIC50 in assay [1] was 6.52 to 7.00; in assay [2], > 7.00; in assay [3] it was > 7.00; in assay [4], > 7.00.
With `COc1cc2nccc(Oc3ccc(NC(=O)c4cn(CC(F)F)c(C)c(-c5ccc(F)cc5C)c4=O)cc3F)c2nc1OC` [Compound 730, 1-(2,2-difluoroethyl)-N-[4-[(6,7-dimethoxy-1,5-naphthyridin-4-yl)oxy]-3-fluorophenyl]-5-(4-fluoro-2-methylphenyl)-6-methyl-4-oxopyridine-3-carboxamide], the negative logarithm of the IC50 (pIC50) in assay [1] was 6.52 to 7.00; in assay [2], > 7.00; in assay [3] it was > 7.00; in assay [4], > 7.00.
For `COc1cnc2c(Oc3ccc(NC(=O)c4cn(CC(F)F)c(C)c(-c5ccc(F)cc5C)c4=O)cc3)ccnc2c1` [Compound 731, 1-(2,2-difluoroethyl)-5-(4-fluoro-2-methylphenyl)-N-[4-[(7-methoxy-1,5-naphthyridin-4-yl)oxy]phenyl]-6-methyl-4-oxopyridine-3-carboxamide], the negative logarithm of the IC50 (pIC50) in assay [1] was < 6.52; in assay [2], > 7.00; in assay [3], > 7.00; in assay [4] it was > 7.00.
Turning to `COc1cc2nccc(Oc3ccc(NC(=O)c4c(C)c(C)nn(-c5ccc(F)cc5)c4=O)cc3)c2nc1OC` [Compound 732, N-[4-[(6,7-dimethoxy-1,5-naphthyridin-4-yl)oxy]phenyl]-2-(4-fluorophenyl)-5,6-dimethyl-3-oxopyridazine-4-carboxamide], the negative-log IC50 (pIC50) was < 6.52 in assay [1], > 7.00 in assay [2], > 7.00 in assay [3] and > 7.00 in assay [4].
Consider `COc1cnc2c(Oc3ccc(NC(=O)c4c(C)c(C)nn(-c5ccc(F)cc5)c4=O)cc3)ccnc2c1` [Compound 733, 2-(4-fluorophenyl)-N-[4-[(7-methoxy-1,5-naphthyridin-4-yl)oxy]phenyl]-5,6-dimethyl-3-oxopyridazine-4-carboxamide], for which the pIC50 in assay [1] was < 6.52; in assay [2], > 7.00; in assay [3], < 6.52; in assay [4] it was > 7.00.
As for `COc1cnc2c(Oc3ccc(NC(=O)c4c(C)c(C)nn(-c5ccc(F)cc5)c4=O)cc3F)ccnc2c1` [Compound 734, N-[3-fluoro-4-[(7-methoxy-1,5-naphthyridin-4-yl)oxy]phenyl]-2-(4-fluorophenyl)-5,6-dimethyl-3-oxopyridazine-4-carboxamide], the pIC50 in assay [1] is < 6.52; in assay [2] it was > 7.00; in assay [3], 6.52 to 7.00; in assay [4], > 7.00.
For the molecule `COc1cc2nccc(Oc3ccc(NC(=O)c4c(C)nc(C)c(-c5ccc(F)cc5C)c4O)cc3)c2nc1Cl` [Compound 735, N-[4-[(6-chloro-7-methoxy-1,5-naphthyridin-4-yl)oxy]phenyl]-5-(4-fluoro-2-methylphenyl)-4-hydroxy-2,6-dimethylpyridine-3-carboxamide], the negative-log IC50 (pIC50) in assay [1], in assay [2], in assay [3] and in assay [4] was > 7.00 each time.
In the case of `COc1cc2nccc(Oc3ccc(NC(=O)c4c(C)nc(C)c(-c5ccc(F)cc5C)c4O)cc3F)c2nc1Cl` [Compound 736, N-[4-[(6-chloro-7-methoxy-1,5-naphthyridin-4-yl)oxy]-3-fluorophenyl]-5-(4-fluoro-2-methylphenyl)-4-hydroxy-2,6-dimethylpyridine-3-carboxamide], the pIC50 in assay [1], in assay [2], in assay [3] and in assay [4] was > 7.00 each time.
As to `COc1cc2nccc(Oc3cc(F)c(NC(=O)c4c(C)nc(C)c(-c5ccc(F)cc5C)c4O)cc3F)c2nc1Cl` [Compound 737, N-[4-[(6-chloro-7-methoxy-1,5-naphthyridin-4-yl)oxy]-2,5-difluorophenyl]-5-(4-fluoro-2-methylphenyl)-4-hydroxy-2,6-dimethylpyridine-3-carboxamide], the pIC50 in assay [1], in assay [2], in assay [3] and in assay [4] was > 7.00 in each case.
As for `COc1cc2nccc(Oc3ccc(NC(=O)c4c(C)[nH]nc(-c5ccc(F)cc5C)c4=O)cc3F)c2nc1OC` [Compound 738, N-[4-[(6,7-dimethoxy-1,5-naphthyridin-4-yl)oxy]-3-fluorophenyl]-3-(4-fluoro-2-methylphenyl)-6-methyl-4-oxo-1H-pyridazine-5-carboxamide], the negative logarithm of the IC50 (pIC50) in assay [1], in assay [2], in assay [3] and in assay [4] was > 7.00 throughout.
As for `COc1cc2nccc(Oc3ccc(NC(=O)c4c(C)c(C(C)=O)cn(-c5ccc(F)cc5C)c4=O)cc3F)c2nc1OC` [Compound 739, 5-acetyl-N-[4-[(6,7-dimethoxy-1,5-naphthyridin-4-yl)oxy]-3-fluorophenyl]-1-(4-fluoro-2-methylphenyl)-4-methyl-2-oxopyridine-3-carboxamide], the pIC50 in assay [1] is < 6.52; in assay [2] it was > 7.00; in assay [3], > 7.00; in assay [4], > 7.00.
For the molecule `C=Cc1c(C)c(C(=O)Nc2ccc(Oc3ccnc4cc(OCCOC)c(OC)nc34)c(F)c2)c(=O)n(-c2ccc(F)cc2)c1C` [Compound 740, 5-ethenyl-N-[3-fluoro-4-[[6-methoxy-7-(2-methoxyethoxy)-1,5-naphthyridin-4-yl]oxy]phenyl]-1-(4-fluorophenyl)-4,6-dimethyl-2-oxopyridine-3-carboxamide], the negative logarithm of the IC50 (pIC50) in assay [1], in assay [2], in assay [3] and in assay [4] was > 7.00 each time.
On to `C=Cc1c(C)c(C(=O)Nc2ccc(Oc3ccnc4cc(OCCOC)c(OC)nc34)cc2)c(=O)n(-c2ccc(F)cc2)c1C` [Compound 741, 5-ethenyl-1-(4-fluorophenyl)-N-[4-[[6-methoxy-7-(2-methoxyethoxy)-1,5-naphthyridin-4-yl]oxy]phenyl]-4,6-dimethyl-2-oxopyridine-3-carboxamide], for which the pIC50 in assay [1] is 6.52 to 7.00; in assay [2] it was > 7.00; in assay [3] it was > 7.00; in assay [4], > 7.00.
On to `C=Cc1c(C)c(C(=O)Nc2ccc(Oc3ccnc4cc(OCCOC)cnc34)c(F)c2)c(=O)n(-c2ccc(F)cc2)c1C` [Compound 742, 5-ethenyl-N-[3-fluoro-4-[[7-(2-methoxyethoxy)-1,5-naphthyridin-4-yl]oxy]phenyl]-1-(4-fluorophenyl)-4,6-dimethyl-2-oxopyridine-3-carboxamide], for which the pIC50 in assay [1] was < 6.52; in assay [2] it was > 7.00; in assay [3], > 7.00; in assay [4], > 7.00.
`COc1cc(Oc2ccnc3cc(OC)c(OC)nc23)c(F)cc1NC(=O)c1cn(C)c(C)c(-c2ccc(F)cc2)c1=O` [Compound 743, N-[4-[(6,7-dimethoxy-1,5-naphthyridin-4-yl)oxy]-5-fluoro-2-methoxyphenyl]-5-(4-fluorophenyl)-1,6-dimethyl-4-oxopyridine-3-carboxamide]: the pIC50 in assay [1] was < 6.52; in assay [2] it was > 7.00; in assay [3] it was > 7.00; in assay [4] it was > 7.00.
On to `COc1cc2nccc(Oc3cc(C)c(NC(=O)c4cn(C)c(C)c(-c5ccc(F)cc5)c4=O)cc3F)c2nc1OC` [Compound 744, N-[4-[(6,7-dimethoxy-1,5-naphthyridin-4-yl)oxy]-5-fluoro-2-methylphenyl]-5-(4-fluorophenyl)-1,6-dimethyl-4-oxopyridine-3-carboxamide], for which the pIC50 in assay [1] is < 6.52; in assay [2], > 7.00; in assay [3], > 7.00; in assay [4], > 7.00.

Values taken from patent publication US12371428B2 (Exelixis, Inc., priority 2019, dated 2025).
